Experimental data from patent EP4360456A1, “PHYTOSANITARY FORMULATION” (Universidad de Almeria, priority 2021, dated 2022).
Read-outs that look alike come from different tables or passages of the source.

Tested on: fungus F. oxysporum
Experiment: microbe, parasite or virus in culture
Format: cell-based
Settings: for inhibition at 2000 µg/mL / inhibition at 5000 µg/mL / inhibition at 7500 µg/mL / inhibition at 10000 µg/mL: Fusarium oxysporum
Experimental: The % of inhibition is calculated with respect to the control based on the areas of growth of the fungus according to the following equation: % of inhibition with respect to FOM = 100−((AP)/(AC)*100) [formula] wherein: • AP: area of growth of the fungus in the target dish. • AC: Area of growth of the fungus in the control dish.

[1] = Concentration 2 g/L, Table 4 concentration screening, read-out: Percentages of inhibition
[2] = Concentration 5 g/L, Table 4 concentration screening, read-out: Percentages of inhibition
[3] = Concentration 7.5 g/L, Table 4 concentration screening, read-out: Percentages of inhibition
[4] = Concentration 10 g/L, Table 4 concentration screening, read-out: Percentages of inhibition
[5] = solution at 5 g/L, Table 3, read-out: % of inhibition

`C[C@H](N)C(=O)O` [Alanine, L-Alanine] showed an inhibition at 2000 µg/mL [1] of 9.24 ± 0.85%, an inhibition at 5000 µg/mL [2] of 9.48 ± 1.06% and an inhibition at 7500 µg/mL [3] of 13.3 ± 1.01%. The inhibition at 10000 µg/mL [4] was 14.4 ± 0.87% and the inhibition at 5000 µg/mL [5] was 9.23 ± 0.71%.
`N.O=CO` [Ammonium formate] was tested, and the “% of inhibition” value (solution at 5 g/L, Table 3) was 1.54 ± 0.15%.
Compound `CCO` [Ethanol] has an inhibition at 5000 µg/mL (read-out: % of inhibition) of 3.07 ± 0.45%.
Compound `OCC(O)CO` [Glycerol] has an inhibition at 5000 µg/mL [5] of 1.85 ± 0.1%.
`N[C@@H](Cc1ccccc1)C(=O)O` [Phenylalanine, L-Phenylalanine] gave an inhibition at 2000 µg/mL [1] of 17 ± 2.24%, an inhibition at 5000 µg/mL [2] of 19.5 ± 1.85% and an inhibition at 7500 µg/mL [3] of 19.2 ± 1.65%. It also gave an inhibition at 10000 µg/mL [4] of 21.7 ± 1.74% and an inhibition at 5000 µg/mL [5] of 16.1 ± 1.05%.
`CC(=O)O` [Sodium acetate, Anhydrous sodium acetate] gave an inhibition at 5000 µg/mL (read-out: % of inhibition) of 1.54 ± 0.05%.
`O=C[O-].[Na+]` [Sodium formate] was tested, and the Percentages of inhibition (Concentration 2 g/L, Table 4 concentration screening) was 5.66 ± 0.41, the Percentages of inhibition (Concentration 5 g/L, Table 4 concentration screening) was 12.33 ± 0.98 and the Percentages of inhibition (Concentration 7.5 g/L, Table 4 concentration screening) was 12.54 ± 1.54. For the same compound, the Percentages of inhibition (Concentration 10 g/L, Table 4 concentration screening) was 12.14 ±0.52 and the “% of inhibition” value (solution at 5 g/L, Table 3) was 13.38 ± 0.95%.
